In patent publication US20250057963A1, “DISCOVERY OF PIPERLONGUMINE AS A NOVEL E3 LIGASE LIGAND” (University of Florida Research Foundation, Incorporated, priority 2021, published 2025):
“Also recorded” adds a separate entry of the source.

Legend:
[1] = tested on: LNCaP prostate cancer cells and H1299 lung cancer cells; test: Cell killing (MTS) with or without KEAP1 siRNA knockdown; type: cell-based, Human; details: KEAP1 siRNA vs control siRNA 48 h; compound 0.1 mM (LNCaP) or 0.3 mM (H1299) for 24 h
Experimental: FIGS. 19A to 19B show percentages of cell killing in LNCaP (FIG. 19A) and H1299 (FIG. 19B) cells with or without KEAP1 knockdown. LNCaP and H1299 cells were treated with control siRNA or siRNAs targeting KEAP1 for 48 h and then reseeded and treated with indicated compound (0.1 mM for LNCaP cells and 0.3 mM for H1299 cells) for 24 h. The cell viability was then determined by MTS assay. The data are presented as mean±SD from three replicate cell cultures in a representative experiment. Data are representative of two independent experiments. Statistical significance was calculated with unpaired two-tailed Student's t-tests. **P<0.01; ***P<0.001; NS: not significant.
Viability (MTS) assays in various cancer cells followed the methods described in our previous report (Khan et al., 2019). The data were expressed as average % cell viability and fitted in non-linear regression curves using GraphPad Prism 9 (GraphPad Software, La Jolla, CA, USA).

c-Myc and MCl-1 = test: c-Myc and MCL-1 expression in MOLT4 cells (qPCR and immunoblot); type: cell-based, Human
Experimental: (§1) Cells were collected and lysed in RIPA lysis buffer (Cat. #BP-115DG, Boston Bio Products, Ashland, MA, USA) supplemented with protease and phosphatase inhibitor cocktails (Cat. #PPC1010, Sigma-Aldrich, St. Louis, MO, USA). Protein samples were made and immunoblotting was performed as described previously (Khan et al., 2019; Lv et al., 2021). Antibodies purchased from Cell Signaling Technologies (CST) and the dilutions are as follows: Biotin (Cat. No. 5571S, 1:1000), PARP (Cat. No. 9542S, 1:1000), c-Myc (Cat. No. 5605S, 1:1000), MCL1 (Cat. No. 5453S, 1:1000), and ALK (Cat. No. 3791S, 1:1000). KEAP1 antibody was purchased from Proteintech (Cat. No. 10503-2-AP, 1:1000). CDK9 antibody was purchased from Santa Cruz (Cat. No. sc-13130, 1:500). V5-tag antibody was purchased from Bethyl (Cat. No. A190-120P, 1:1000). j-actin antibody was purchased from MP Biomedicals (Cat. No. 8691001, 1:20 000).
Total RNA was extracted as mentioned above. Reverse transcription and quantitative PCR (qPCR) was performed as described in our previous study (Lv et al., 2021). Primers used for measuring gene transcriptional level: GAPDH primers (forward 5′-[…]-3′ and reverse 5′-[…]-3′) were described previously (Zhang et al., 2018b). MCL1 primers are forward 5′-[…]-3′ and reverse 5′-[…]-3′; MYC primers are forward 5′-[…]-3′ and reverse 5′-[…]-3′.

CDK9 [2] = target: T1, CDK9 (Homo sapiens, UniProt P50750); test: 955-induced CDK9 degradation in H1299 cells after KEAP1, TRIP12 or TRAF6 knockdown/knockout and KEAP1 rescue; type: cell-based; design: endogenous in cells; host or cells: MOLT4, 293T, K562, NCI-H1299, LNCaP
T1 sequence (P50750 whole entry): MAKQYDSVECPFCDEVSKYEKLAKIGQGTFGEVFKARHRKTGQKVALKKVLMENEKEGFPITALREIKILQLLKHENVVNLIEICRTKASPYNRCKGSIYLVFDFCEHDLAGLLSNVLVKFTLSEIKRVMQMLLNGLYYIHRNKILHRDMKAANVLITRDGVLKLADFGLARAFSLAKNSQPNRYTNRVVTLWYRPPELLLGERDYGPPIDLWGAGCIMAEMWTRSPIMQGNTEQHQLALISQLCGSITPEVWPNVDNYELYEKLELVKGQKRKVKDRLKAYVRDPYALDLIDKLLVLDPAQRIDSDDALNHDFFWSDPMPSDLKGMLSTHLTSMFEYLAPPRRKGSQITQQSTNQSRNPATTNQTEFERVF
Experimental: as §1
To knockout KEAP1, two lentiviral CRISPR knockout plasmids targeting human KEAP1 gene were purchased from Abm (Cat. No. 254911110595). Packaging 293T cells were transfected with KEAP1 single guide RNA (sgRNA) and helper vectors (pMD2.G and psPAX2; Addgene plasmid #12259 and 12260) using Lipofectamine 3000 reagent (Cat. No. L3000015, Thermal Fisher). Medium containing lentiviral particles and 8 µg/mL polybrene (Sigma-Aldrich) was used to infect H1299 cells. Infected cells were selected in medium containing […] puromycin. The sgRNA target sequences are as follows: sg1: […]; sg2: […]. Single clones were selected by serial dilution.
KEAP1-sg1 knockout H1299 (4×10^5) cells were transfected with or without plasmid expressing Halo-KEAP1 (Addgene, a gift from Yimon Aye, plasmid #58240) using Lipofectamine 3000 reagent (Cat. No. L3000015, Thermal Fisher). After 24 h, the cells in each well of 6-well plate were divided into two wells and cultured for additional 16 h.

CDK9 [3] = target: T1, CDK9; test: CDK9 degradation and c-Myc/MCL-1 downregulation in LNCaP cells (immunoblot); type: cell-based; design: endogenous in cells; host or cells: MOLT4, 293T, K562, NCI-H1299, LNCaP
Experimental: Human T-ALL MOLT4 (Cat. No. CRL-1582), K562 (Cat. No. CCL-243), NCI-H1299 (Cat. No. CRL-5803), NCI-H2228 (Cat. No. CRL-5935), LNCaP (Cat. No. CRL-1740), 22RV1 (Cat. No. CRL-2505), PC3 (Cat. No. CRL-1435), DU145 (Cat. No. HTB-81), and epithelial kidney HEK 293T (293T, Cat. No. ACS-4500) cell lines were recently purchased from American Type Culture Collection (ATCC, Manassas, VA, USA). MOLT4, K562, NCI—H-1299, NCI-H2228, LNCap, and 22RV 1 cell lines were cultured in RPMI 1640 medium (Cat No. 22400-089, Thermo Fisher Scientific, Waltham, MA, USA) supplemented with 10% (v/v) heat-inactivated fetal bovine serum (FBS, Cat. No. S11150H, Atlanta Biologicals, Flowery Branch, GA, USA), 100 U/mL penicillin and 100 pig/mL streptomycin (Pen-Strep, Cat. No. 15140122, Thermo Fisher Scientific). PC3 cells were cultured in complete F—12K medium (Kaighn's modification of Ham's F-12 medium, Cat. No. 30-2004, ATCC) supplemented with 10% (v/v) heat-inactivated FBS, 100 U/mL penicillin, and 100 μg/mL streptomycin. DU145 cells were cultured in complete Eagle's Minimum Essential Medium (EMEM, Cat. No. 30-2003, ATCC) supplemented with 10% (v/v) heat-inactivated FBS, 100 U/mL penicillin, and 100 μg/mL streptomycin. […]
Immunoblot data were quantified using the ImageJ (v 1.53a) software from NIH. […]

SMILES: COc1cc(/C=C/C(=O)N2CCC=CC2=O)cc(OC)c1OCCN1CCN(C(=O)CN2CCC(C(=O)Nc3ncc(SCc4ncc(C(C)(C)C)o4)s3)CC2)CC1 [compound 955, (E)-N-(5-(((5-(tert-butyl)oxazol-2-yl)methyl)thio)thiazol-2-yl)-1-(2-(4-(2-(2,6-dimethoxy-4-(3-oxo-3-(6-oxo-3,6-dihydropyridin-1(2H)-yl)prop-1-en-1-yl)phenoxy)ethyl)piperazin-1-yl)-2-oxoethyl)piperidine-4-carboxamide]
- effect of KEAP1 knockdown on cytotoxicity of the compound [1]: attenuated the cytotoxicity
- effectiveness relative to SNS-032 in downregulating c-Myc and MCl-1 (mRNA and protein) (c-Myc and MCl-1): ~10 times
- potency relative to SNS-032 in downregulation of c-Myc and MCl-1 (mRNA and protein) (c-Myc and MCl-1): about 10 fold
- 955-induced CDK9 degradation after KEAP1 knock down/out (siRNA, CRISPR-Cas9) (CDK9 [2]; H1299 cells): blocked after depleting KEAP1
- 955-induced CDK9 degradation after TRIP12 or TRAF6 siRNA knockdown (CDK9 [2]; H1299 cells, 6 h): had no effect
- 955-induced CDK9 degradation after ectopic Halo-tagged KEAP1 in KEAP1 stable knockout cells (CDK9 [2]; KEAP1-sg1 knockout H1299 cells, 955 for 6 h): rescued CDK9 degradation
- CDK9 degradation and downregulation of c-Myc and MCL-1 (CDK9 [3]): dose-dependent manner; also recorded: potently degraded CDK9 and downregulated c-Myc and MCL-1
